# Reference: article PMC12651750 (Cells, 2025)
# Tests used:
# [1] = tested on: Jurkat cells; test: Annexin V-FITC/PI apoptosis assay (flow cytometry); assay type: cell-based, human; conditions: 48 h
# Protocol: Apoptosis was assessed using an Annexin V-FITC Apoptosis Detection Kit according to the manufacturer’s instructions. Briefly, cells were double-stained with fluorescein isothiocyanate (FITC)-conjugated Annexin V and propidium iodide (PI). Jurkat cells were cultured to the appropriate density. Three sets of concentration gradients, namely 0.2 μM, 1 μM, and 5 μM, were established while DMSO was used as the control. The Jurkat cells were cultured for 48 h. Centrifuge at 1000× g for 5 min to precipitate the cells. We collected the cells, added the staining solution according to the instructions of the Annexin V-FITC Apoptosis Detection Kit to complete the staining, and immediately tested the cells on Flow cytometry.
# [2] = target: T1, HDAC6 (Homo sapiens, UniProt Q9UBN7); test: In vitro HDAC enzymatic inhibition assay (HDAC kit, fluorescence)
# T1 sequence (Q9UBN7 1-1215): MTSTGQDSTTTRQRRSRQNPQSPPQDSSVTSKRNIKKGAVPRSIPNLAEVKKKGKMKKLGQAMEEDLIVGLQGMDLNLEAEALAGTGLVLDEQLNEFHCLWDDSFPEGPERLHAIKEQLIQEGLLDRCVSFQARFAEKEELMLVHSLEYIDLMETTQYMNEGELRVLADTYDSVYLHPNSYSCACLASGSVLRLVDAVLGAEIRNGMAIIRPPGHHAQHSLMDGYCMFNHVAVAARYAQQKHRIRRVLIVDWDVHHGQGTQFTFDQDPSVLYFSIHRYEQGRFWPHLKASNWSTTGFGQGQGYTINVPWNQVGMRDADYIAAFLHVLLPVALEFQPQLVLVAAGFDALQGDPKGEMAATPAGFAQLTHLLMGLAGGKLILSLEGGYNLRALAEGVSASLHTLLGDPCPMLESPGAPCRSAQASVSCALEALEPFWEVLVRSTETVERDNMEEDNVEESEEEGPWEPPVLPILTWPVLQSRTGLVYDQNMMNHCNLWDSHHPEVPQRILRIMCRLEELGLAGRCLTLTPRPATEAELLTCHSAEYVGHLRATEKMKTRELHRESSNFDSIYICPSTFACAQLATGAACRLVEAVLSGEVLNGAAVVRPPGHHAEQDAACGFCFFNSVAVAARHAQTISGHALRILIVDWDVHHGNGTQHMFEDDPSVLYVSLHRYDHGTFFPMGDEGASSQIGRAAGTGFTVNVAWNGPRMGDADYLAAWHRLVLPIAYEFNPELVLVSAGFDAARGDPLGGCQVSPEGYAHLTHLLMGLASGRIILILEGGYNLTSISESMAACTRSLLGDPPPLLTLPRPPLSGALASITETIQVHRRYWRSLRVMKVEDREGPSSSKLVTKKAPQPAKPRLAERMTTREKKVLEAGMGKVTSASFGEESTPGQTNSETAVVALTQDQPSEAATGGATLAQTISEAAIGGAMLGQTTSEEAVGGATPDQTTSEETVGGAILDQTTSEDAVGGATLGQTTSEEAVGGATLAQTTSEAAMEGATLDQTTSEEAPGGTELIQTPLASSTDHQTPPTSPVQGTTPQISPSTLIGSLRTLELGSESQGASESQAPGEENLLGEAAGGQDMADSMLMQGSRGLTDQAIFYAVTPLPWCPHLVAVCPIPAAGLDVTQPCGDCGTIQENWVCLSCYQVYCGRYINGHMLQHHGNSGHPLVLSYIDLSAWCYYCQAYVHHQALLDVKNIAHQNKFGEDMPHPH
# Protocol: Enzymatic assays were performed by Shanghai ChemPartner according to the HDAC kit protocol. […] Fluorescence was recorded at 355 nm excitation and 460 nm emission on a Synergy MX reader (PerkinElmer Life Sciences, Boston, MA, USA). IC50 values were derived from dose–response curves.
# [3] = tested on: Jurkat cells; test: Whole proteomic analysis (mass spectrometry); assay type: cell-based, human
# Protocol: The cell cultivation was completed in a 60 mm plate; the number of cells accounted for roughly 30–40% of the orifice. We stimulated cells with 1 μM and 5 μM of NBU-2 and 0.1% DMSO. […] After 48 h, the cells were collected, about 200 μL of NP-40 Lysis Buffer containing phosphatase inhibitor and protease inhibitor was added, and the cells were lysed to release the proteins. Measure the protein concentration of each group of samples using the BCA protein quantification method. The disulfide bonds in the protein structure were reduced using TCEP and then alkylated with IAA. Samples were added to a centrifugal filtration unit with an ultrafiltration membrane, and proteins were digested using trypsin 2 times, the first time for 4 h and the second time overnight with the addition of an appropriate amount of trypsin. […] Samples were reconstituted using 0.1% formic acid, and approximately 1 μg of protein was taken for detection using mass spectrometry.
# Mass spectrometry analysis was performed using an Orbitrap Fusion Lumos mass spectrometer (Thermo Fisher Scientific, Shanghai, China). Chromatographic separations were performed on an Acclaim PepMap C18 column using a 60 min linear gradient elution program: the proportion of mobile phase B (acetonitrile containing 0.1% formic acid) was increased from 2% to 35%, and the flow rate was maintained at 250 nL/min. […]
compound,measurement,setting,value
"Cc1cccc2c(=O)c3c(NCCCCCC(=O)NO)ccc([N+](=O)[O-])c3[nH]c12 [NBU-2, N-hydroxy-6-((5-methyl-4-nitro-9-oxo-9,10-dihydroacridin-1-yl)amino)hexanamide]",Percentage of cells in early apoptotic stage (Q3),[1]; 0.2 μM,11.5%
same,Percentage of cells in early apoptotic stage (Q3),[1]; 1 μM,16.1%
same,Percentage of cells in early apoptotic stage (Q3),[1]; 5 μM,84.7%
same,IC50,[2],7.34 ± 0.6 nM
same,Total Akt protein (proteomics),"[3]; 1 µM and 5 µM vs DMSO, p > 0.05",did not show any significant change
same,Expression of Rb (proteomics),[3]; 48 h,not affected
